Experimental data: BindingDB's records for doi:10.1021/jm030354b (Millennium Pharmaceuticals, 2004)

Key:
[1] = target: T1, Integrin alpha-IIb/beta-3 (Homo sapiens, UniProt P08514+P05106); experiment: Inhibition of platelet aggregation induced by 20 uM adenosine 5-diphosphate (ADP) in citreated human platelet rich plasma (h-PRP)
[2] = Inhibition of citreated human (h-PRP) platelet aggregation induced by 5 uM TRAP6
[3] = Inhibition of human platelet (h-PRP) aggregation induced by 20 uM ADP with PPACK
[4] = Inhibition of human platelet (h-PRP) aggregation induced by 5 uM TRAP6 with PPACK
[5] = target: T1, Integrin alpha-IIb/beta-3; experiment: Inhibition of human platelet (h-PRP) aggregation induced by 20 uM ADP with PPACK
[6] = Inhibition of citreated human platelet (h-PRP) aggregation induced by 4 ug/mL collagen
[7] = Inhibition of human platelet (h-PRP) aggregation induced by 4 ug/mL collagen with PPACK

T1 sequence (P05106 27-788 limits assumed): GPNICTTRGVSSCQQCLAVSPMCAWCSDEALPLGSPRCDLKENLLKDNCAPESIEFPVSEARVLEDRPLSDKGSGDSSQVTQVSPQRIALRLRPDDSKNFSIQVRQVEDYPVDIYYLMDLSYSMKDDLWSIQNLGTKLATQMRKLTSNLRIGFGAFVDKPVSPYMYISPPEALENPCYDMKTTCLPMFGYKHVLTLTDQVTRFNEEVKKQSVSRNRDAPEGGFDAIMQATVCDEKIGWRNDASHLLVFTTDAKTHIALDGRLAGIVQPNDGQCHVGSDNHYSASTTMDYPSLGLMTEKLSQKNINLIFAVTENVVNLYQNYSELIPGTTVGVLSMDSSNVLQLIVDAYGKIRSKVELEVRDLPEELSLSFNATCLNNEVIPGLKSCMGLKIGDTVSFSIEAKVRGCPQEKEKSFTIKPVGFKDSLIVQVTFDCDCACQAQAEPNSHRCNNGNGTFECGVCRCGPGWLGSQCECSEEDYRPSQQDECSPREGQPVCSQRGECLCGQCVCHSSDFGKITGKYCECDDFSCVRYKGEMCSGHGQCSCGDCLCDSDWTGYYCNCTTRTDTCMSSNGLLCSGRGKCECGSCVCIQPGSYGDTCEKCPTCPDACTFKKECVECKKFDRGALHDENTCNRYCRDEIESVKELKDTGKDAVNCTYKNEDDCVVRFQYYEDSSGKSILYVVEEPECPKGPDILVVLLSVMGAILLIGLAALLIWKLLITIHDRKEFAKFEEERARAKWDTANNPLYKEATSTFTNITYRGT
T1 sequence (P08514 32-887 limits assumed): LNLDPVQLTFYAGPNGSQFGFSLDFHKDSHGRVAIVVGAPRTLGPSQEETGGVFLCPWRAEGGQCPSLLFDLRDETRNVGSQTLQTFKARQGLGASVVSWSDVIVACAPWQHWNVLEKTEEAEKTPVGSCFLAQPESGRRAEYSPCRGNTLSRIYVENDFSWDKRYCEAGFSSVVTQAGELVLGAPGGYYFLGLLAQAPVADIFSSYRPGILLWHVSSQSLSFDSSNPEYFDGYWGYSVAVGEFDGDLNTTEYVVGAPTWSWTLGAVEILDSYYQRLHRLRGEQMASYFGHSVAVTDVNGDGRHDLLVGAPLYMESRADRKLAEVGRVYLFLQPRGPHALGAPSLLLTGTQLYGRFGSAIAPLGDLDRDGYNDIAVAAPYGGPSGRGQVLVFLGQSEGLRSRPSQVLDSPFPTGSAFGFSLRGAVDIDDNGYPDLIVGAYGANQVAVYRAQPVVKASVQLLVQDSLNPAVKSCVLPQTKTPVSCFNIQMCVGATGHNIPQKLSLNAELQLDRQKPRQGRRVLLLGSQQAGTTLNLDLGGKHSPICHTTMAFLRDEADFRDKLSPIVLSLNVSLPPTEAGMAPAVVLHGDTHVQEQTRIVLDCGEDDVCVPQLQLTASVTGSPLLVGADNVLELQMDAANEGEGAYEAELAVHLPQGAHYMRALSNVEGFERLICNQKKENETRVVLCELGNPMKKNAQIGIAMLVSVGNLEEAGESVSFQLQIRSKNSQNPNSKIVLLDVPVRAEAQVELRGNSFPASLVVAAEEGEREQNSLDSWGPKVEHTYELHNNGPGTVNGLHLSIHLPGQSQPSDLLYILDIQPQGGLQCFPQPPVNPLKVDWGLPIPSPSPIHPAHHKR
T1 sequence (P08514 891-1039 limits assumed): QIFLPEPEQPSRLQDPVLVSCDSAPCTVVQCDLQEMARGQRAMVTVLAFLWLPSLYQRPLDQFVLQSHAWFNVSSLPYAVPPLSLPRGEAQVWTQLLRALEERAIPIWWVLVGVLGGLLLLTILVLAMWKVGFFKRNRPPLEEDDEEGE

| SMILES | IC50 [1] [µM] | IC50 [2] [µM] | IC50 [4] [µM] | other results |
| --- | --- | --- | --- | --- |
| CCOC(=O)CCNC(=O)N[C@H]1CCN(c2ccc(C(=N)N)cc2)C1=O [SC-57099B] | 0.068 | 0.166 | 0.362 | IC50 [3]: 0.137 µM |
| Cc1ccc(S(=O)(=O)N[C@@H](CNC(=O)N2CCC3(CC2)C(=O)N(c2ccc(C(=N)N)cc2)C(=O)N3C)C(=O)O)cc1 [(S)-3-{[3-(4-Carbamimidoyl-phenyl)-1-methyl-2,4-dioxo-1,3,8-triaza-spiro[4.5]decane-8-carbonyl]-amino}-2-(toluene-4-sulfonylamino)-propionic acid] | 0.059 |  |  |  |
| N=C(N)c1ccc(N2CC3(CCN(C(=O)CCCC(=O)O)CC3)NC2=O)cc1 [5-[3-(4-Carbamimidoyl-phenyl)-2-oxo-1,3,8-triaza-spiro[4.5]dec-8-yl]-5-oxo-pentanoic acid] | 1.02 |  |  |  |
| CCCCOC(=O)N[C@@H](CCC(=O)N1CCC2(CC1)CC(=O)N(c1ccc(C(=N)N)cc1)C2=O)C(=O)O [2-Butoxycarbonylamino-5-[2-(4-carbamimidoyl-phenyl)-1,3-dioxo-2,8-diaza-spiro[4.5]dec-8-yl]-5-oxo-pentanoic acid] | 0.27 |  |  |  |
| CCCCOC(=O)N[C@@H](CCC(=O)N1CCC2(CC1)C(=O)N(c1ccc(C(=N)N)cc1)C(=O)N2C)C(=O)O [2-Butoxycarbonylamino-5-[3-(4-carbamimidoyl-phenyl)-1-methyl-2,4-dioxo-1,3,8-triaza-spiro[4.5]dec-8-yl]-5-oxo-pentanoic acid] | 0.065 |  |  |  |
| N=C(N)c1ccc(N2CC3(CCN(C(=O)CCC(=O)O)CC3)CC2=O)cc1 [4-[2-(4-Carbamimidoyl-phenyl)-3-oxo-2,8-diaza-spiro[4.5]dec-8-yl]-4-oxo-butyric acid] | 5.7 |  |  |  |
| CCOC(=O)COC1CCN(C(=O)[C@H](C)NC(=O)c2ccc(C(=N)NO)cc2)CC1 [((S)-1-{2-[4-(N-Hydroxycarbamimidoyl)-benzoylamino]-propionyl}-piperidin-4-yloxy)-acetic acid ethyl ester] | 0.051 | 0.147 | 0.182 | IC50 [3]: 0.072 µM |
| C[C@@H](CC(=O)O)CC(=O)N1CCC2(CC1)CCN(c1ccc(C(=N)N)cc1)C2=O [(R)-5-[2-(4-Carbamimidoyl-phenyl)-1-oxo-2,8-diaza-spiro[4.5]dec-8-yl]-3-methyl-5-oxo-pentanoic acid] |  |  |  | IC50 [3]: 0.112 µM |
| CN1C(=O)N(c2ccc(C(=N)N)cc2)C(=O)C12CCN(C(=O)NCCC(=O)O)CC2 [3-{[3-(4-Carbamimidoyl-phenyl)-1-methyl-2,4-dioxo-1,3,8-triaza-spiro[4.5]decane-8-carbonyl]-amino}-propionic acid] | 0.222 |  |  |  |
| CN1C(=O)N(c2ccc(C(=N)N)cc2)CC12CCN(C(=O)CCCC(=O)O)CC2 [5-[3-(4-Carbamimidoyl-phenyl)-1-methyl-2-oxo-1,3,8-triaza-spiro[4.5]dec-8-yl]-5-oxo-pentanoic acid] | 0.674 |  |  |  |

Continued, in another order:

| IC50 [1] [µM] | IC50 [2] [µM] | IC50 [4] [µM] | SMILES | other results |
| --- | --- | --- | --- | --- |
| 0.053 | 0.12 | 0.365 | N=C(N)c1ccc(N2CCC3(CCN(C(=O)NCCC(=O)O)CC3)C2=O)cc1 [3-{[2-(4-Carbamimidoyl-phenyl)-1-oxo-2,8-diaza-spiro[4.5]decane-8-carbonyl]-amino}-propionic acid] | IC50 [5]: 0.11 µM |
| 0.068 |  |  | C[C@H](CC(=O)O)NC(=O)N1CCC2(CC1)CCN(c1ccc(C(=N)N)cc1)C2=O [(R)-3-{[2-(4-Carbamimidoyl-phenyl)-1-oxo-2,8-diaza-spiro[4.5]decane-8-carbonyl]-amino}-butyric acid] |  |
| 0.149 |  |  | N=C(N)c1ccc(N2CCC3(CCN(C(=O)CC(CC(=O)O)c4ccccc4)CC3)C2=O)cc1 (centres undefined) [5-[2-(4-Carbamimidoyl-phenyl)-1-oxo-2,8-diaza-spiro[4.5]dec-8-yl]-5-oxo-3-phenyl-pentanoic acid] |  |
| 0.054 | 0.123 | 0.368 | N=C(N)c1ccc(N2CCC3(CCN(C(=O)CCCC(=O)O)CC3)C2=O)cc1 [5-[2-(4-Carbamimidoyl-phenyl)-1-oxo-2,8-diaza-spiro[4.5]dec-8-yl]-5-oxo-pentanoic acid] | IC50 [3]: 0.168 µM; IC50 [6]: 0.175 µM; IC50 [7]: 0.464 µM |
| 0.108 | 0.273 | 0.691 | N=C(N)c1ccc(N2CCC3(CCN(C(=O)COCC(=O)O)CC3)C2=O)cc1 [{2-[2-(4-Carbamimidoyl-phenyl)-1-oxo-2,8-diaza-spiro[4.5]dec-8-yl]-2-oxo-ethoxy}-acetic acid] | IC50 [5]: 0.26 µM; IC50 [6]: 0.393 µM; IC50 [7]: 0.812 µM |
